According to publication PMC11096368, “Transcriptomic signature, bioactivity and safety of a non-hepatotoxic analgesic generating AM404 in the midbrain PAG region” (Scientific Reports, 2024):
Like-named read-outs stand apart in the source and are kept apart here.

How the values were obtained:
[1] = Phase 1 multiple ascending dose (MAD) pharmacokinetics; assay type: in vivo, human; conditions: for half-life: human, plasma, oral
Protocol: (§1) A randomized, double-blind, placebo-controlled Phase 1 trial (ClinicalTrials.gov identifier: NCT05484414) (02/08/2022) was conducted to assess the safety, tolerability, food effect, pharmacokinetics (PK), and pharmacodynamics (PD) of single and multiple ascending doses of SRP-001 (Quotient Sciences, Miami FL USA; Fig. 3h - k and Methods). The trial was conducted in accordance with the International Council for Harmonisation of Technical Requirements for Pharmaceuticals for Human Use (ICH), Guideline for GCP: Consolidated Guidance (E6), attained Institutional Review Board approval, and all applicable regulatory requirements for Phase 1, First in Human clinical trials. Safety measurements and plasma samples to determine PK parameters were collected throughout the study for all subjects and reviewed by the Safety Review Committee. PK stopping criteria were established to assure that systemic exposure to SRP-001 was less than or equal to the systemic exposure achieved at the NOAEL doses in the 28-day repeat-dose toxicology studies in the rat and dog. The trial’s Safety Advisory Committee has approved the publication of the Phase 1 results.
(§2) SRP-001 was administered as an oral nanosuspension to 56 healthy volunteers across five Single Ascending Dose (SAD) and two Multiple Ascending Dose (MAD) cohorts, with 42 subjects receiving SRP-001 and 14 receiving a placebo.
(§3) A two-part randomized, double-blind, placebo-controlled Phase 1 trial was conducted to assess the safety, tolerability, PK and PD of SRP-001 ascending doses (Quotient Sciences, Miami, FL, USA). The study was conducted in accordance with the International Council for Harmonisation of Technical Requirements for Pharmaceuticals for Human Use (ICH), Guideline for GCP: Consolidated Guidance (E6), and applicable regulatory requirements(s) including clinical research guidelines established by the Basic Principles defined in the U.S. 21 CFR Parts 50, 56, and 312 and the principles enunciated in the Declaration of Helsinki (revised version Fortaleza 2013). The clinical protocol and informed consent form were reviewed and approved by an Institutional Review Board (IRB; Advarra IRB, 6100 Merriweather Drive, Suite 600, Columbia, MD 21,044; Quotient Protocol No. SRP-101 and Quotient Sciences Study No. QSC205130; Quotient Sciences Miami, 3898 NW 7th Street, Miami, FL 33,126.). The study comprises a SAD (Part 1) assessment that includes a food effect assessment that contributes data to inform a subsequent MAD (Part 2) dose-ranging study. Safety measurements were collected throughout the study for all subjects. Blood samples were collected to determine the PK parameters of SRP-001 (ClinicalTrials.gov identifier: NCT05484414) (02/08/2022).

[2] = system: healthy volunteers; assay: Phase 1 trial safety and tolerability; assay type: in vivo, human; conditions: for Clinically significant abnormality (N): Adverse events / Clinically significant abnormality (N): Clinical chemistry / Clinically significant abnormality (N): ECG / Clinically significant abnormality (N): Physical exam / Clinically significant abnormality (N): Urinalysis / Clinically significant abnormality (N): Vital signs / Clinically significant abnormality (N): pharHematology: n = 6
Protocol: as §1, §2, §3
NHVs also underwent continuous ECG Holter monitoring from at least 1 h prior to dosing until 24 h post-dose, and resulting measurements were monitored consistently. All ECGs were collected electronically using a Mortara H12 + Holter monitor. Specific procedures for ECG Holter recording and extractions were provided to the Investigator by the Central ECG Laboratory, Banook Group. On Day 1, continuous Holter recording commenced at least 1 h prior to dosing until 24 h post-dose. Subjects were required to rest in the supine position with no external stimuli (e.g. music or television) for 15 min prior to the nominal time point where an ECG extraction was scheduled. This extraction was taken by the third-party Holter provider at the planned time, and therefore, no other procedures were performed within the resting period. […] Subjects were allowed to move more freely outside of the primary ECG rest periods. Comfort breaks for hygienic purposes were allowed each morning well in advance of the required supine/ECG extraction points. […]

[3] = system: Chinese Hamster ovary cells; assay: In vitro mammalian chromosomal aberration assay; assay type: cell-based; conditions: for Doses with cytotoxicity (≥ 45% reduction in cell growth index): non-activated 20-h exposure
Protocol: In the preliminary toxicity assay, the doses tested ranged from 0.0405 to 405 µg/mL (1 mM), which was the limit dose for this assay (Bioreliance, Rockville, MD USA).
The doses selected for evaluation of chromosome aberrations were 150, 300, and 405 µg/mL for the non-activated and S9-activated 4-h exposure groups; and 10, 40, and 80 µg/mL for the non-activated 20-h exposure group. […] The induction of structural aberrations was outside the 95% control limit of the historical negative control data of 0.00% to 2.79%. […] However, the induction of structural aberrations was within the 95% control limit of the historical negative control data of 0.00% to 4.28%. […] The induction of structural aberrations was outside the 95% control limit of the historical negative control data of 0.00% to 2.68%.
The induction of numerical aberrations was within the 95% control limit of the historical negative control data.

[4] = Cohort 1 (Regimen A), 300 mg SRP-001, Fasted
[5] = Cohort 2 (Regimen B), 600 mg SRP-001, Fasted
[6] = Cohort 3 (Regimen C), 900 mg SRP-001, Fasted
[7] = Cohort 4 (Regimen E), 2000 mg SRP-001, Fasted

CCN(CC)C(=O)c1ccccc1S(=O)(=O)NCC(=O)Nc1ccc(O)cc1 [SRP-001, N,N-diethyl-2-[[2-(4-hydroxyanilino)-2-oxo-ethyl]sulfamoyl]benzamide]
PK parameters on Day 5 versus Day 1 ([1]; Phase 1 MAD cohort): decrease | half-life ([1]; 500 mg, MAD, 500 mg dose, Day 1, read-out: Geometric mean T1/2 (converted)): 3.06 h | half-life ([1]; 500 mg, MAD, 500 mg dose, Day 5, read-out: Geometric mean T1/2 (converted)): 4.92 h | half-life ([1]; 1000 mg, MAD, 1,000 mg dose, Day 1, read-out: Geometric mean T1/2 (converted)): 4.05 h | half-life ([1]; 1000 mg, MAD, 1,000 mg dose, Day 5, read-out: Geometric mean T1/2 (converted)): 9.77 h | half-life ([1]; MAD cohorts, read-out: Arithmetic mean T1/2 (converted)): 5.57 h | half-life ([1]; Phase 1 trial, read-out: Half-life): 4.9 to 9.8 h | Clinically significant abnormality (N): Adverse events [2, 4]: 0 | Clinically significant abnormality (N): Clinical chemistry [2, 4]: 0 | Clinically significant abnormality (N): ECG [2, 4]: 0 | Clinically significant abnormality (N): Physical exam [2, 4]: 0 | Clinically significant abnormality (N): Urinalysis [2, 4]: 0 | Clinically significant abnormality (N): Vital signs [2, 4]: 0 | Clinically significant abnormality (N): pharHematology [2, 4]: 0 | Clinically significant abnormality (N): Adverse events [2, 5]: 0 | Clinically significant abnormality (N): Clinical chemistry [2, 5]: 0 | Clinically significant abnormality (N): ECG [2, 5]: 0 | Clinically significant abnormality (N): Physical exam [2, 5]: 0 | Clinically significant abnormality (N): Urinalysis [2, 5]: 0 | Clinically significant abnormality (N): Vital signs [2, 5]: 0 | Clinically significant abnormality (N): pharHematology [2, 5]: 0 | Clinically significant abnormality (N): Adverse events [2, 6]: 0 | Clinically significant abnormality (N): Clinical chemistry [2, 6]: 0 | Clinically significant abnormality (N): ECG [2, 6]: 0 | Clinically significant abnormality (N): Physical exam [2, 6]: 0 | Clinically significant abnormality (N): Urinalysis [2, 6]: 0 | Clinically significant abnormality (N): Vital signs [2, 6]: 0 | Clinically significant abnormality (N): pharHematology [2, 6]: 0 | Clinically significant abnormality (N): Adverse events [2, 7]: 0 | Clinically significant abnormality (N): Clinical chemistry [2, 7]: 0 | Clinically significant abnormality (N): ECG [2, 7]: 0 | Clinically significant abnormality (N): Physical exam [2, 7]: 0 | Clinically significant abnormality (N): Urinalysis [2, 7]: 0 | Clinically significant abnormality (N): Vital signs [2, 7]: 0 | Clinically significant abnormality (N): pharHematology [2, 7]: 0 | Emesis ([2]; Phase 1 MAD cohort): no emesis | Safety assessments (vital signs, physical examinations, continuous ECG, laboratory tests) ([2]; SAD and MAD cohorts): revealed no abnormalities | Serious adverse events (SAEs) ([2]; five SAD and two MAD cohorts, 42 subjects receiving SRP-001): no serious adverse events (SAEs) reported | Tolerability ([2]; oral nanosuspension, SAD and MAD cohorts): well tolerated | Cytotoxicity (≥ 45% reduction in cell growth index) [3]: not observed at any dose | Induction of numerical chromosomal aberrations [3]: negative | Induction of structural chromosomal aberrations [3]: positive | Structural aberrations ([3]; Chinese hamster, 20 h, 80 µg/mL): 3.7% | Dose with cytotoxicity (≥ 45% reduction in cell growth index) ([3]; chromosome aberration assay, non-activated 4-h exposure): 405 µg/mL | Doses with cytotoxicity (≥ 45% reduction in cell growth index) ([3]; chromosome aberration assay): ≥ 70 µg/mL | Doses with cytotoxicity (≥ 45% reduction in cell growth index) ([3]; preliminary toxicity assay): ≥ 122 µg/mL
